Test results from PMC11696576, “Next generation thiazolyl ketone inhibitors of cytosolic phospholipase A2 α for targeted cancer therapy” (Nature Communications, 2025).
Values joined by “and” are separate entries in the source; they are usually repeats but may differ in a detail not shown here. Equal values may be shown once. Read-outs that look alike come from different tables or passages of the source.

Test system: panel of 66 cancer cell lines
Assay: cancer cell line screen, proliferation assay (ATPlite, 72 h)
Format: cell-based, human
Conditions: for raw signal, dose-response (Figure S7a): rep1, rep2, listed as AVX420; for IC50: Homo sapiens
Source text: Targeting specific molecular vulnerabilities in cancer is considered a key approach to reducing the adverse effects of chemotherapy. However, the events that govern the susceptibility to suppression of the cPLA2α in cancer remain largely unexplored. We therefore took the approach of screening the antiproliferative activity of AVX420 in a panel of 66 cancer cell lines (hereafter referred to as the cancer cell line screen or CCLS) to allow us to investigate molecular and genetic vulnerabilities to the drug.
Screening of compound activities in 66 cancer cell lines was carried out at the Netherlands Translation Research Center. Briefly, proliferation assays were performed 72 h after compound addition using ATPlite 1step reagent (Perkin Elmer). IC50s calculated by non-linear regression analysis were used as a measure of compound activity for investigating associations with genetic factors. A complete description of the laboratory and data analysis methods are available in the Supplementary Information file (Supplemental Methods: Cancer Cell Line Screening).
Cancer cell line screening
Cell proliferation assays
All cell lines were from the American Type Culture Collection (ATCC) Manassas, Virginia (US) and maintained under ATCC-recommended protocols and within 9 pas- […]
DMSO at -80°C until one hour before use. Cells exposed within one hour after thaw-ing of the compound stocks. Final compound concentration range in the assay was 10 […]
cated by supplier. Compounds were dissolved in 100 % DMSO and stored at room temperature. Final concentration of the reference compounds in the assay was 3.16x10-5 M to 3.16x10-9 M. The final DMSO concentration during incubation was […]
Cell lines were plated in Advanced RPMI 1640 (Gibco, ref 12633-012) cell culture medium, containing 1% Glutamax solution (Gibco, ref 35050-038), 0.4% Pen Strep solution (Gibco, ref 15140-122) and bovine serum. The cPLA2α inhibitors were tested in 0.5% bovine serum (HyClone, ref SH30072.03) with the exception of769-P, A-204, BT-549, SR, T98G, which were tested in the presence of 1.0% serum and A-704 and LNCaP FGS, which were tested in the in the presence of 10% serum. Reference com-pounds were all tested in the presence of 10% bovine serum.
Cells were dispensed in a 384-well plate, at a concentration of 200 - 3200 cells per well, depending on the cell line, in 45 μL medium. Plated cells were incubated in a humidified atmosphere of 5% CO2 at 37 °C. After 24 hours, 5 μL of compound dilu-tion was added and plates were further incubated for another 72 hours. After 72 hours, 25 μL of ATPlite 1Step™ (PerkinElmer) solution was added to each well, and subse-quently shaken for 2 minutes. After 10 minutes of incubation in the dark, the lumines-cence was recorded on an Envision multimode reader (PerkinElmer).
Cell growth control. The cellular doubling times of all cell lines are calculated from the t = 0 hours and t = 72 hours growth signals of the untreated cells. If the doubling time is out of specification (0.5 – 2.0 times deviating from historic average) the assay […]
IC50s were calculated by non-linear regression using IDBS XLfit 5. The percentage growth after 72h (%-growth) was calculated as follows: 100% x (luminescence t = 72h / luminescence untreated,t=72h). This was fitted to the 10log compound concentration (conc) by a 4-parameter logistics curve: %-growth = bottom + (top – bottom) / (1+ 10(logIC50 – conc)*hill)), where hill is the Hill-coefficient, and bottom and top the asymptotic mini-mum and maximum cell growth that the compound allows in that assay.
All analysis were performed in the statistical software package R and visualized using GraphPad Prism version 10.0 .0

CCCCCCCOc1ccc(OCC(=O)c2nc(C(=O)OC)cs2)cc1 [GK420]
average panel 10logIC50 (10log of IC50 in nM, panel average): 4.17
pIC50 (769P, kidney): 4,561
pIC50 (786O, kidney): 4,867
pIC50 (A172, central_nervous_system): 4,692
pIC50 (A204, soft_tissue): 4,646
pIC50 (A375, skin): 4,764
pIC50 (A388, cervix): 4,776
pIC50 (A427, lung): 4,923
pIC50 (A498, kidney): 4,615
pIC50 (A549, lung): 4,624
pIC50 (ACHN, kidney): 4,799
pIC50 (AN3CA, endometrium): 4,941
pIC50 (AU565, breast): 4,836
pIC50 (AsPC1, pancreas): 4,597
pIC50 (BT20, breast): 4,474
pIC50 (BT549, breast): 4,818
pIC50 (BxPC3, pancreas): 4,715
pIC50 (CAL27, upper_aerodigestive_tract): 4,804
raw signal, dose-response (Figure S7a) (CCRF-CEM, Log10 M -4): 5160 and 4973
raw signal, dose-response (Figure S7a) (CCRF-CEM, Log10 M -4.5): 1680 and 1133
raw signal, dose-response (Figure S7a) (CCRF-CEM, Log10 M -6): 1223867 and 1721613
raw signal, dose-response (Figure S7a) (CCRF-CEM, Log10 M -6.5): 5260280 and 5359267
raw signal, dose-response (Figure S7a) (CCRF-CEM, Log10 M -7): 5505373 and 6147053
raw signal, dose-response (Figure S7a) (CCRF-CEM, Log10 M -7.5): 5656213 and 5825533
raw signal, dose-response (Figure S7a) (CCRF-CEM, Log10 M -8): 5419560 and 5847920
pIC50 (COLO829, unknown): 4,761
pIC50 (Daoy, central_nervous_system): 4,867
pIC50 (DoTc24510, cervix): 4,743
pIC50 (HCT15, large_intestine): 4,945
pIC50 (HCT116, large_intestine): 4,795
IC50 (769-P, read-out: IC50): 27.5 µM
IC50 (786-0, 786-O, read-out: IC50): 13.6 µM
IC50 (72 h, panel average, 72 h, read-out: average IC50 in the cancer cell line screen): 18.4 µM
IC50 (A 172, A-172, read-out: IC50): 20.3 µM
IC50 (A204, A-204, read-out: IC50): 22.6 µM
IC50 (A388, read-out: IC50): 16.8 µM
IC50 (A498, A-498, read-out: IC50): 24.3 µM
IC50 (A549, A-549, read-out: IC50): 23.8 µM
IC50 (A704, A704, kidney, read-out: pIC50 (converted)): 34 µM
IC50 (A704, A-704, read-out: IC50): > 100 µM
IC50 (A-375, A375, read-out: IC50): 17.2 µM
IC50 (A-427, A-427, read-out: IC50): 11.9 µM
IC50 (ACHN, read-out: IC50): 15.9 µM
IC50 (AN3-CA, AN3 CA, read-out: IC50): 11.4 µM
IC50 (ASPC1, AsPC-1, read-out: IC50): 25.3 µM
IC50 (AU565, AU-565, read-out: IC50): 14.6 µM
IC50 (BT-20, BT-20, read-out: IC50): 33.6 µM
IC50 (BT-549, BT-549, read-out: IC50): 15.2 µM
IC50 (BXPC-3, BxPC-3, read-out: IC50): 19.3 µM
IC50 (C-33-A, C33A, cervix, read-out: pIC50 (converted)): 1.74 µM
IC50 (C-33-A, C-33 A, read-out: IC50): 1.74 µM
IC50 (CAL-27, CAL 27, read-out: IC50): 15.7 µM
IC50 (CCRF-CEM, CCRFCEM, blood, read-out: pIC50 (converted)): 0.708 µM
IC50 (CCRF-CEM, read-out: IC50): 0.708 µM
IC50 (COLO 205, COLO 205, read-out: IC50): 22.3 µM
IC50 (COLO-829, COLO 829, read-out: IC50): 17.3 µM
IC50 (DLD-1, DLD1, large_intestine, read-out: pIC50 (converted)): 13.8 µM
IC50 (DLD-1, DLD-1, read-out: IC50): 13.8 µM
IC50 (DU-145, DU 145, read-out: IC50): 25.3 µM
IC50 (Daoy, read-out: IC50): 13.6 µM
IC50 (DoTc2-4510, DoTc2 4510, read-out: IC50): 18.1 µM
IC50 (FaDu, upper_aerodigestive_tract, read-out: pIC50 (converted)): 25.7 µM
IC50 (FaDu, read-out: IC50): 25.7 µM
IC50 (HCT-15, HCT-15, read-out: IC50): 11.4 µM
IC50 (HCT-116, HCT 116, read-out: IC50): 16 µM
IC50 (Hs-578T, Hs 578T, read-out: IC50): 14.7 µM
IC50 (J82, J82, read-out: IC50): 19.2 µM
IC50 (Jurkat E6.1, Jurkat E6.1, read-out: IC50): 0.569 µM
IC50 (K562, K-562, read-out: IC50): 15.3 µM
IC50 (KU812, KU812, read-out: IC50): 9.13 µM
IC50 (LNCaP, LNCaP FGC, read-out: IC50): 91.7 µM
IC50 (LS174T, LS 174T, read-out: IC50): 20.3 µM
IC50 (LoVo, read-out: IC50): 16.6 µM
IC50 (MCF7, MCF7, read-out: IC50): 14.7 µM
IC50 (MG-63, MG-63, read-out: IC50): 22.7 µM
IC50 (MIA PaCa-2, MIA PaCa-2, read-out: IC50): 13.1 µM
IC50 (MOLT-4, MOLT-4, read-out: IC50): 4.07 µM
IC50 (MeWo, read-out: IC50): 19.5 µM
IC50 (NCI-H82, NCI-H82, read-out: IC50): 4.84 µM
IC50 (NCI-H460, NCI-H460, read-out: IC50): 32.5 µM
IC50 (OVCAR-3, OVCAR-3, read-out: IC50): 13.7 µM
IC50 (PA1, ovary, read-out: pIC50 (converted)): 2.88 µM
IC50 (PA-1, PA-1, read-out: IC50): 2.88 µM
IC50 (RKO, read-out: IC50): 10.1 µM
IC50 (RPMI-7951, RPMI-7951, read-out: IC50): 14.1 µM
IC50 (RT-4, RT4, read-out: IC50): 33.4 µM
IC50 (SHP77, SHP-77, read-out: IC50): 13.8 µM
